Measured values from ChEMBL document CHEMBL4364346, “Structure optimization of a new class of PPARγ antagonists” (Bioorg Med Chem, 2019).
Values after ≈ are worked out from the molar mass of the structure shown. Active and inactive are the calls of the source. No cut-off for these calls is given here.

Assays:
[1] = biological target: T1, Peroxisome proliferator-activated receptor gamma (Homo sapiens, UniProt P37231); test: Antagonist actvity in pFA-GAL4-DBD fused PPARgamma LBD (unknown origin) transfected in HEK293T cells assessed as inhibition of rosiglitazone-induced PPARgamma transactivation incubated for 24 hrs by luciferase reporter gene assay; format: cell-based; settings: read-out: IC50
T1 sequence (P37231 whole entry): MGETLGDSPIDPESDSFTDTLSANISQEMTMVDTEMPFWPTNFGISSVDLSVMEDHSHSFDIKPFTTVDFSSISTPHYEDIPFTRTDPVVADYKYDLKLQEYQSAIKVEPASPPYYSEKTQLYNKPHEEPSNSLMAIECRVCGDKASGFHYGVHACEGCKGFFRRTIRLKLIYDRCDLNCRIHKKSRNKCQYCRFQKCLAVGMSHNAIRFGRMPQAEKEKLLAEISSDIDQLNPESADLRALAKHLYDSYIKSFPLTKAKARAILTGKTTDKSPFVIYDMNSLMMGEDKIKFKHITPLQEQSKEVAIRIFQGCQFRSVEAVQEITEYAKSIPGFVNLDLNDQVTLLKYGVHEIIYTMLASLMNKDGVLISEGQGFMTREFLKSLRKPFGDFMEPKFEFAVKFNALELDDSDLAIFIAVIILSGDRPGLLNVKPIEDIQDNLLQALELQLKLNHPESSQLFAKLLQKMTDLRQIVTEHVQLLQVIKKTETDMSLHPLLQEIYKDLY

[2] = Solubility of compound in PBS buffer pH 7.4 with 1% DMSO measured after 1 and 24 hrs; format: physicochemical; settings: PBS buffer with 1% DMSO
[3] = Metabolic stability in Sprague-Dawley rat liver microsomes assessed as remaining compound at […] incubated for 60 mins; format: ADME, Microsome; settings: read-out: Stability
[4] = Metabolic stability in Sprague-Dawley rat liver microsomes assessed as half life at […] incubated for 60 mins; format: ADME, Microsome
[5] = Cmax in Swiss CD1 mouse at 1 mg/kg, ip measured upto 7 hrs by LC-MS analysis; format: ADME, organism-based; design: dose 1 mg/kg, route intraperitoneal; settings: in vivo
[6] = AUC (0 to 3 hrs) in Swiss CD1 mouse at 1 mg/kg, ip measured upto 3 hrs by LC-MS analysis; format: ADME, organism-based; design: dose 1 mg/kg, time < 3 hr, route intraperitoneal; settings: in vivo
[7] = Plasma concentration in Swiss CD1 mouse at 10 mg/kg, ip measured upto 4 hrs by LC-MS analysis; format: ADME, organism-based
[8] = biological target: T2, Peroxisome proliferator-activated receptor alpha (Homo sapiens) (UniProt Q07869); test: Agonist activity at recombinant human pFA-CMV fused PPARalpha LBD transfected in HEK293T cells assessed as PPARalpha activation at 1 uM incubated for 12 to 14 hrs by dual glo luciferase reporter gene assay; format: cell-based
T2 sequence (whole entry): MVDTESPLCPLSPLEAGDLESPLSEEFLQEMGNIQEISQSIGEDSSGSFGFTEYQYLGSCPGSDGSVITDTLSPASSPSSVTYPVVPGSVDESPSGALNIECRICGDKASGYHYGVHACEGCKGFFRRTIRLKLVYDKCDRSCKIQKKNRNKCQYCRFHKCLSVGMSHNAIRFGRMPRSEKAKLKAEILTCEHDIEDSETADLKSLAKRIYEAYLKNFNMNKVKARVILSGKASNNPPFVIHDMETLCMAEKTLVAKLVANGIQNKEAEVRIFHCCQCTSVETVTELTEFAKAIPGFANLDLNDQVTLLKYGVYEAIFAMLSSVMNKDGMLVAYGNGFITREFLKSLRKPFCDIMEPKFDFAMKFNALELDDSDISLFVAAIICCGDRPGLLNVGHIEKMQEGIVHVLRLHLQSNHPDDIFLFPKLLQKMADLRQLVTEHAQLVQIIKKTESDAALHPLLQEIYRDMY

[9] = biological target: T3, Peroxisome proliferator-activated receptor delta (Homo sapiens) (UniProt Q03181); test: Agonist activity at recombinant human pFA-CMV fused PPARdelta LBD transfected in HEK293T cells assessed as PPARdelta activation at 1 uM incubated for 12 to 14 hrs by dual glo luciferase reporter gene assay; format: cell-based
T3 sequence (whole entry): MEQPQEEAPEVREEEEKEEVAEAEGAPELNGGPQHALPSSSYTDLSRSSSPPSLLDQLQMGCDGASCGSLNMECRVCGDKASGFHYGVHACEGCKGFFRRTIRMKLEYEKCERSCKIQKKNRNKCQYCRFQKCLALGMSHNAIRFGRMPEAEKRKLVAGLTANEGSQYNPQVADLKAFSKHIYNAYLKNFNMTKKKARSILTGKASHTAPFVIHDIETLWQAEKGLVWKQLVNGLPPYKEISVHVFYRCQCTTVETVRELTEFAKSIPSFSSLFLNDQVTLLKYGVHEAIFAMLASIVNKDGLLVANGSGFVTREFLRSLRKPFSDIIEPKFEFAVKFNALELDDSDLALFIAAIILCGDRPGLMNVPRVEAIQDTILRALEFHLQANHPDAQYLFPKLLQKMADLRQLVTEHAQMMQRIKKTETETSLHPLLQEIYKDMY

[10] = biological target: T4, Retinoic acid receptor RXR-alpha (Homo sapiens) (UniProt P19793); test: Agonist activity at recombinant human pFA-CMV fused RXRalpha LBD transfected in HEK293T cells assessed as RXRalpha activation at 1 uM incubated for 12 to 14 hrs by dual glo luciferase reporter gene assay; format: cell-based
T4 sequence (whole entry): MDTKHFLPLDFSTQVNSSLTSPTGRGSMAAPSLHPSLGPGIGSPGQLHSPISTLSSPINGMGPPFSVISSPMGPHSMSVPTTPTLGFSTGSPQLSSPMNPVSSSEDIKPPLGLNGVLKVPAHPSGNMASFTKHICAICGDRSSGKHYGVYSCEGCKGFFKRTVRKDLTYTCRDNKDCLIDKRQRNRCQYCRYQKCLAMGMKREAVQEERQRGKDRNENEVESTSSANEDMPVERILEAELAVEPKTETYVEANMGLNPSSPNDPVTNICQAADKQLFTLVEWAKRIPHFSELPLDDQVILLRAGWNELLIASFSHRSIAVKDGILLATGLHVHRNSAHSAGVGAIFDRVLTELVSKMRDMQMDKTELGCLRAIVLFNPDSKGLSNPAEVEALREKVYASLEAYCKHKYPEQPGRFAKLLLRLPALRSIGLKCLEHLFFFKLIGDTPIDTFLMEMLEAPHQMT

[11] = biological target: T4, Retinoic acid receptor RXR-alpha (Homo sapiens); test: Antagonist activity at recombinant human pFA-CMV fused RXRalpha LBD transfected in HEK293T cells assessed as reduction in bexarotene-induced RXRalpha activation at 1 uM incubated for 12 to 14 hrs by dual glo luciferase reporter gene assay; format: cell-based
[12] = biological target: Oxysterols receptor LXR-alpha (Homo sapiens) (UniProt Q13133); test: Agonist activity at recombinant human pFA-CMV fused LXRalpha LBD transfected in HEK293T cells assessed as LXRalpha activation at 1 uM incubated for 12 to 14 hrs by dual glo luciferase reporter gene assay
Sequence of Oxysterols receptor LXR-alpha (Homo sapiens) (Q13133 whole entry, looked up, the tested form may be a part): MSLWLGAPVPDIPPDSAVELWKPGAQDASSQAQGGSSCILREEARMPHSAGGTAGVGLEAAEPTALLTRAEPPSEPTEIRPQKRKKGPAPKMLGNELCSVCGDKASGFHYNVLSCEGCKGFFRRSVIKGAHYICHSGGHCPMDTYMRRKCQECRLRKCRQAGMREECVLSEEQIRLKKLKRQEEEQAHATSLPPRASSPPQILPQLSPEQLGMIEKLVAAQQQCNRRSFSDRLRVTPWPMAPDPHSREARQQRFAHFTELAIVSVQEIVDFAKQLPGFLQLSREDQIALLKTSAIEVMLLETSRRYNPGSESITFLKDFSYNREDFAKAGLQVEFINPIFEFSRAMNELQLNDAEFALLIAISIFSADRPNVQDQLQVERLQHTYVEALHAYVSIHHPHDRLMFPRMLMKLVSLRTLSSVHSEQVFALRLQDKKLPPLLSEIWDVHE

[13] = biological target: Oxysterols receptor LXR-alpha (Homo sapiens) (UniProt Q13133); test: Antagonist activity at recombinant human pFA-CMV fused LXRalpha LBD transfected in HEK293T cells assessed as reduction in T0901317-induced LXRalpha activation at 1 uM incubated for 12 to 14 hrs by dual glo luciferase reporter gene assay

IC50 [1] [µM]	solubility at 24 h [2] [µM]	remaining at 1 h [3] [%]	half-life [4] [h]	Cmax [5] [nM]	AUC(0-t) at 3 h [6] [ng·h/mL]	concentration at 4 h [7] [nM]	Activity [8]	Activity [9]	Activity [10]	Activity [11]	Activity [12]	Activity [13]	Structure (SMILES)
2.5	125 to 150 (≈ 71.6 to 85.9 µg/mL)	95	> 1	60	101	115	inactive	inactive	inactive	inactive	inactive	inactive	CCC/C(=C\c1cc(OCc2ccc3nc(C(F)(F)F)cc(OC)c3c2)ccc1OCC1CCN(C)CC1)C(=O)O
4.7	200 to 250 (≈ 118 to 147 µg/mL)	81	> 1	74	112	59	inactive	inactive	inactive	inactive	inactive	inactive	CCC/C(=C\c1cc(OCc2ccc3nc(C(F)(F)F)cc(OC)c3c2)ccc1OCCN1CCN(C)CC1)C(=O)O
